Toxic doses and inconclusive results are not listed. Cut-off read from the data, not from the text of the source: active = T/C of 150% or more; inactive = T/C below 125%.
Tested on: L1210 leukemia ip in BDF1 mice, survival T/C
Assay: NCI In Vivo Anticancer Drug Screen. Data for tumor model L1210 Leukemia (intraperitoneal) in B6D2F1 (BDF1) mice
Conditions: endpoint: mean survival time, higher = longer survival
How it was run: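 Tumor was transplanted into mice, which were then dosed with test compound or vehicle alone. Survival was recorded for each group, and the treated figure was expressed relative to the control figure.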

[1] = dose: 100.0 mg/kg/injection, schedule: Q01DX001 (ip), vehicle: Klucel (hydroxypropylcellulose) (HPC)
[2] = dose: 100.0 mg/kg/injection, schedule: Q01DX009 (ip), vehicle: saline with Tween-80
[3] = dose: 100.0 mg/kg/injection, schedule: Q04DX003 (ip), vehicle: saline with Tween-80
[4] = dose: 200.0 mg/kg/injection, schedule: Q01DX009 (ip), vehicle: saline with Tween-80
[5] = dose: 200.0 mg/kg/injection, schedule: Q04DX003 (ip), vehicle: saline with Tween-80
[6] = dose: 400.0 mg/kg/injection, schedule: Q01DX009 (ip), vehicle: saline with Tween-80
[7] = dose: 400.0 mg/kg/injection, schedule: Q04DX003 (ip), vehicle: saline with Tween-80
[8] = dose: 100.0 mg/kg/injection, schedule: Q01DX001 (ip), vehicle: saline
[9] = dose: 200.0 mg/kg/injection, schedule: Q01DX001 (ip), vehicle: saline
[10] = dose: 400.0 mg/kg/injection, schedule: Q01DX001 (ip), vehicle: saline

Measured: T/C

Nc1nc2nc3c(nc2c(=O)[nH]1)CN(c1ccc(C(=O)O)cc1)C3=O
inactive: dose: 12.5 mg/kg/injection, schedule: Q01DX009 (ip), vehicle: saline with Tween-80 90 % of control | dose: 25.0 mg/kg/injection, schedule: Q01DX009 (ip), vehicle: saline with Tween-80 94 % of control | dose: 50.0 mg/kg/injection, schedule: Q01DX009 (ip), vehicle: saline with Tween-80 87 % of control

Cc1nc2c(N)nnc(N)c2nc1C
inactive: dose: 25.0 mg/kg/injection, schedule: Q01DX001 (ip), vehicle: Klucel (hydroxypropylcellulose) (HPC) 97 % of control | dose: 50.0 mg/kg/injection, schedule: Q01DX001 (ip), vehicle: Klucel (hydroxypropylcellulose) (HPC) 93 % of control | [1] 95 % of control | dose: 100.0 mg/kg/injection, schedule: Q01DX009 (ip), vehicle: Klucel (hydroxypropylcellulose) (HPC) 100 % of control

CCOC(=O)C(C)C(=O)Cc1cc(OC)c(C)cc1Br (stereo unspecified)
inactive: [2] 97 % of control | [3] 97 % of control | [4] 100 % of control | [5] 95 % of control | [6] 105 % of control | [7] 109 % of control

CCNC(=O)C1C2CC3OC(=O)C1C3C2 (stereo unspecified)
inactive: [3] 90 % of control | [5] 95 % of control | [7] 95 % of control

NC(N)=NN=C1c2ccccc2-c2ccccc21
inactive: dose: 1.0 mg/kg/injection, schedule: Q01DX Z (ip), vehicle: methylcellulose (MC) 107 % of control | dose: 2.0 mg/kg/injection, schedule: Q01DX Z (ip), vehicle: methylcellulose (MC) 102 % of control | dose: 4.0 mg/kg/injection, schedule: Q01DX Z (ip), vehicle: methylcellulose (MC) 103 % of control | dose: 4.0 mg/kg/injection, schedule: Q01DX Z (oral), vehicle: methylcellulose (MC) 95 % of control | dose: 8.0 mg/kg/injection, schedule: Q01DX Z (ip), vehicle: methylcellulose (MC) 107 % of control | dose: 16.0 mg/kg/injection, schedule: Q01DX Z (oral), vehicle: methylcellulose (MC) 107 % of control

O=C1OC(=O)c2ccc3c4ccc5c6c(ccc(c7ccc1c2c73)c64)C(=O)OC5=O
inactive: [1] 97 % of control | dose: 200.0 mg/kg/injection, schedule: Q01DX001 (ip), vehicle: Klucel (hydroxypropylcellulose) (HPC) 97 % of control | dose: 400.0 mg/kg/injection, schedule: Q01DX001 (ip), vehicle: Klucel (hydroxypropylcellulose) (HPC) 95 % of control

COc1ccc(-c2c3c(cc4cc(OC)c(OC)cc24)C(=O)OC3=O)cc1OC
inactive: dose: 100.0 mg/kg/injection, schedule: Q01DX001 (ip), vehicle: carboxymethylcellulose (CMC) 93 % of control | dose: 200.0 mg/kg/injection, schedule: Q01DX001 (ip), vehicle: carboxymethylcellulose (CMC) 89 % of control | dose: 400.0 mg/kg/injection, schedule: Q01DX001 (ip), vehicle: carboxymethylcellulose (CMC) 89 % of control

COc1cc2c(cc1OC)C(Cc1cc(OC)c(OC)cc1[N+](=O)[O-])=NCC2
inactive: [8] 100 % of control | [9] 98 % of control | [10] 94 % of control

CC1=C2C(=O)c3ccccc3C2=C(C)S(=O)(=O)O1
inactive: [2] 101 % of control | [3] 98 % of control | [4] 88 % of control | [5] 106 % of control | [6] 94 % of control | [7] 98 % of control

CS(=O)CC(N)C(=O)O (stereo unspecified)
inactive: [8] 97 % of control | [9] 102 % of control | [10] 103 % of control

Cc1cc2ccccc2nc1-c1ccccc1F
inactive: [8] 97 % of control | [9] 94 % of control | [10] 88 % of control

CN(C)CCCNc1n[nH]c2cccc(Cl)c12
inactive: dose: 50.0 mg/kg/injection, schedule: Q01DX009 (ip), vehicle: saline 104 % of control | dose: 100.0 mg/kg/injection, schedule: Q01DX009 (ip), vehicle: saline 96 % of control | dose: 200.0 mg/kg/injection, schedule: Q01DX009 (ip), vehicle: saline 104 % of control

— PubChem BioAssay AID248 (DTP/NCI, 2004)
